# Results from PubChem BioAssay (NCI).
#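 All cell lines were grown in 96-well plates and treated with compound for 48 hours. The concentration for 50% growth inhibition is given as GI50. TGI is the concentration that stops growth completely.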
# Experiments:
# Assay in all cases: NCI-60 cell line screen, 48 h
# UACC-257 melanoma = system: UACC-257 melanoma
# DU-145 prostate = system: DU-145 prostate
# HS 578T breast = system: HS 578T breast
# OVCAR-8 ovarian = system: OVCAR-8 ovarian
# NCI-H226 lung = system: NCI-H226 lung
# OVCAR-4 ovarian = system: OVCAR-4 ovarian
# SNB-19 CNS = system: SNB-19 CNS
# OVCAR-5 ovarian = system: OVCAR-5 ovarian
# HOP-62 NSCLC = system: HOP-62 NSCLC
# HCT-116 colon = system: HCT-116 colon
# NCI/ADR-RES ovarian = system: NCI/ADR-RES ovarian
# IGROV1 ovarian = system: IGROV1 ovarian
# NCI-H23 lung = system: NCI-H23 lung
# U251 CNS = system: U251 CNS
# HCT-15 colon = system: HCT-15 colon
# TK-10 renal = system: TK-10 renal
# ACHN renal = system: ACHN renal
# SF-539 CNS = system: SF-539 CNS
# LOX IMVI melanoma = system: LOX IMVI melanoma
# PC-3 prostate = system: PC-3 prostate
# CAKI-1 renal = system: CAKI-1 renal
# SNB-75 CNS = system: SNB-75 CNS
# K-562 leukemia = system: K-562 leukemia
# NCI-H522 lung = system: NCI-H522 lung
# T-47D breast = system: T-47D breast
# SK-MEL-5 melanoma = system: SK-MEL-5 melanoma
# MOLT-4 leukemia = system: MOLT-4 leukemia
# CCRF-CEM leukemia = system: CCRF-CEM leukemia
# SK-OV-3 ovarian = system: SK-OV-3 ovarian
# HCC-2998 colon = system: HCC-2998 colon
# MCF7 breast = system: MCF7 breast
# A498 renal = system: A498 renal
# SF-268 CNS = system: SF-268 CNS
# RPMI-8226 leukemia = system: RPMI-8226 leukemia
# EKVX NSCLC = system: EKVX NSCLC
# SF-295 CNS = system: SF-295 CNS
# RXF 393 renal = system: RXF 393 renal
# UO-31 renal = system: UO-31 renal
# 786-0 renal = system: 786-0 renal
# HOP-92 NSCLC = system: HOP-92 NSCLC
# SK-MEL-2 melanoma = system: SK-MEL-2 melanoma
# A549 NSCLC = system: A549 NSCLC
# OVCAR-3 ovarian = system: OVCAR-3 ovarian
# MDA-MB-231 breast = system: MDA-MB-231 breast
# HT29 colon = system: HT29 colon
# MALME-3M melanoma = system: MALME-3M melanoma
# HL-60(TB) leukemia = system: HL-60(TB) leukemia
# BT-549 breast = system: BT-549 breast
# KM12 colon = system: KM12 colon
# SR leukemia = system: SR leukemia
# UACC-62 melanoma = system: UACC-62 melanoma
# SK-MEL-28 melanoma = system: SK-MEL-28 melanoma
# NCI-H460 lung = system: NCI-H460 lung
# SW-620 colon = system: SW-620 colon
# M14 melanoma = system: M14 melanoma
# COLO 205 colon = system: COLO 205 colon
# MDA-MB-435 = system: MDA-MB-435
# SN12C renal = system: SN12C renal
structure (smiles),measurement,setting,value
N=C(N)c1ccc(-c2ccc(-c3cncc4ccccc34)s2)s1,GI50,UACC-257 melanoma,2470 nM
same,TGI,UACC-257 melanoma,5230 nM
same,GI50,DU-145 prostate,1550 nM
same,TGI,DU-145 prostate,3000 nM
same,GI50,HS 578T breast,2220 nM
same,TGI,HS 578T breast,4750 nM
same,GI50,OVCAR-8 ovarian,1830 nM
same,TGI,OVCAR-8 ovarian,4400 nM
Cc1cc(NCc2cc(Nc3ccnc4cc(Cl)ccc34)ccc2F)nc(N2CCSCC2)n1,GI50,NCI-H226 lung,2710 nM
same,TGI,NCI-H226 lung,12100 nM
same,GI50,OVCAR-4 ovarian,1820 nM
same,TGI,OVCAR-4 ovarian,5510 nM
same,GI50,SNB-19 CNS,4230 nM
same,TGI,SNB-19 CNS,60700 nM
same,GI50,OVCAR-5 ovarian,2210 nM
same,TGI,OVCAR-5 ovarian,8250 nM
same,GI50,HOP-62 NSCLC,1890 nM
same,TGI,HOP-62 NSCLC,5640 nM
same,GI50,HCT-116 colon,1180 nM
same,TGI,HCT-116 colon,2460 nM
same,GI50,NCI/ADR-RES ovarian,1550 nM
same,TGI,NCI/ADR-RES ovarian,4020 nM
same,GI50,IGROV1 ovarian,1830 nM
same,TGI,IGROV1 ovarian,4420 nM
same,GI50,NCI-H23 lung,1780 nM
same,TGI,NCI-H23 lung,5240 nM
same,GI50,U251 CNS,1760 nM
same,TGI,U251 CNS,3280 nM
same,GI50,HCT-15 colon,1540 nM
same,TGI,HCT-15 colon,3540 nM
same,GI50,TK-10 renal,1920 nM
same,TGI,TK-10 renal,4680 nM
same,GI50,ACHN renal,1700 nM
same,TGI,ACHN renal,3530 nM
same,GI50,SF-539 CNS,1790 nM
same,TGI,SF-539 CNS,3350 nM
same,GI50,LOX IMVI melanoma,1470 nM
same,TGI,LOX IMVI melanoma,2790 nM
same,GI50,PC-3 prostate,1500 nM
same,TGI,PC-3 prostate,4350 nM
same,GI50,CAKI-1 renal,1510 nM
same,TGI,CAKI-1 renal,3190 nM
same,GI50,SNB-75 CNS,1320 nM
same,TGI,SNB-75 CNS,2900 nM
same,GI50,K-562 leukemia,906 nM
same,TGI,K-562 leukemia,3350 nM
same,GI50,NCI-H522 lung,1960 nM
same,TGI,NCI-H522 lung,4490 nM
same,GI50,T-47D breast,1970 nM
same,TGI,T-47D breast,4710 nM
same,GI50,SK-MEL-5 melanoma,1530 nM
same,TGI,SK-MEL-5 melanoma,2940 nM
same,GI50,DU-145 prostate,3310 nM
same,TGI,DU-145 prostate,15700 nM
same,GI50,MOLT-4 leukemia,2120 nM
same,TGI,MOLT-4 leukemia,7070 nM
same,GI50,CCRF-CEM leukemia,473 nM
same,TGI,CCRF-CEM leukemia,> 100000 nM
same,GI50,SK-OV-3 ovarian,1820 nM
same,TGI,SK-OV-3 ovarian,3640 nM
same,GI50,HCC-2998 colon,1960 nM
same,TGI,HCC-2998 colon,4040 nM
same,GI50,MCF7 breast,1640 nM
same,TGI,MCF7 breast,4180 nM
same,GI50,A498 renal,2180 nM
same,TGI,A498 renal,10400 nM
same,GI50,SF-268 CNS,1900 nM
same,TGI,SF-268 CNS,5270 nM
same,GI50,HS 578T breast,1770 nM
same,TGI,HS 578T breast,4980 nM
same,GI50,RPMI-8226 leukemia,1420 nM
same,TGI,RPMI-8226 leukemia,3960 nM
same,GI50,OVCAR-8 ovarian,2540 nM
same,TGI,OVCAR-8 ovarian,9230 nM
same,GI50,EKVX NSCLC,2800 nM
same,TGI,EKVX NSCLC,83900 nM
same,GI50,SF-295 CNS,1310 nM
same,TGI,SF-295 CNS,2760 nM
same,GI50,RXF 393 renal,1520 nM
same,TGI,RXF 393 renal,3350 nM
same,GI50,UO-31 renal,1380 nM
same,TGI,UO-31 renal,2870 nM
same,GI50,786-0 renal,1600 nM
same,TGI,786-0 renal,3130 nM
same,GI50,HOP-92 NSCLC,998 nM
same,TGI,HOP-92 NSCLC,2320 nM
same,GI50,SK-MEL-2 melanoma,2150 nM
same,TGI,SK-MEL-2 melanoma,4710 nM
same,GI50,A549 NSCLC,2920 nM
same,TGI,A549 NSCLC,21800 nM
same,GI50,OVCAR-3 ovarian,1590 nM
same,TGI,OVCAR-3 ovarian,2930 nM
same,GI50,MDA-MB-231 breast,1640 nM
same,TGI,MDA-MB-231 breast,3630 nM
same,GI50,HT29 colon,1770 nM
same,TGI,HT29 colon,4370 nM
O=C(CCN1CCCC1)Nc1ccc2c(NCCc3ccccc3)c3ccccc3nc2c1,GI50,NCI-H226 lung,374 nM
same,TGI,NCI-H226 lung,1950 nM
same,GI50,OVCAR-4 ovarian,326 nM
same,TGI,OVCAR-4 ovarian,1190 nM
same,GI50,SNB-19 CNS,385 nM
same,TGI,SNB-19 CNS,1610 nM
same,GI50,OVCAR-5 ovarian,506 nM
same,TGI,OVCAR-5 ovarian,2130 nM
same,GI50,MALME-3M melanoma,384 nM
same,TGI,MALME-3M melanoma,1450 nM
same,GI50,HOP-62 NSCLC,389 nM
same,TGI,HOP-62 NSCLC,1760 nM
same,GI50,HCT-116 colon,354 nM
same,TGI,HCT-116 colon,1380 nM
same,GI50,NCI/ADR-RES ovarian,12000 nM
same,TGI,NCI/ADR-RES ovarian,> 62900 nM
same,GI50,IGROV1 ovarian,366 nM
same,TGI,IGROV1 ovarian,1630 nM
same,GI50,NCI-H23 lung,374 nM
same,TGI,NCI-H23 lung,1390 nM
same,GI50,U251 CNS,329 nM
same,TGI,U251 CNS,1550 nM
same,GI50,HCT-15 colon,1730 nM
same,TGI,HCT-15 colon,4850 nM
same,GI50,TK-10 renal,1060 nM
same,TGI,TK-10 renal,2960 nM
same,GI50,ACHN renal,510 nM
same,TGI,ACHN renal,2020 nM
same,GI50,SF-539 CNS,435 nM
same,TGI,SF-539 CNS,1550 nM
same,GI50,LOX IMVI melanoma,305 nM
same,TGI,LOX IMVI melanoma,1220 nM
same,GI50,PC-3 prostate,406 nM
same,TGI,PC-3 prostate,1550 nM
same,GI50,HL-60(TB) leukemia,389 nM
same,TGI,HL-60(TB) leukemia,1670 nM
same,GI50,CAKI-1 renal,1500 nM
same,TGI,CAKI-1 renal,5680 nM
same,GI50,SNB-75 CNS,453 nM
same,TGI,SNB-75 CNS,1700 nM
same,GI50,NCI-H522 lung,308 nM
same,TGI,NCI-H522 lung,1270 nM
same,GI50,SK-MEL-5 melanoma,1270 nM
same,TGI,SK-MEL-5 melanoma,2550 nM
same,GI50,BT-549 breast,1190 nM
same,TGI,BT-549 breast,2660 nM
same,GI50,KM12 colon,466 nM
same,TGI,KM12 colon,1800 nM
same,GI50,UACC-257 melanoma,1020 nM
same,TGI,UACC-257 melanoma,2710 nM
same,GI50,DU-145 prostate,367 nM
same,TGI,DU-145 prostate,1360 nM
same,GI50,MOLT-4 leukemia,296 nM
same,TGI,MOLT-4 leukemia,1560 nM
same,GI50,CCRF-CEM leukemia,311 nM
same,TGI,CCRF-CEM leukemia,1770 nM
same,GI50,SK-OV-3 ovarian,422 nM
same,TGI,SK-OV-3 ovarian,2070 nM
same,GI50,HCC-2998 colon,510 nM
same,TGI,HCC-2998 colon,1980 nM
same,GI50,MCF7 breast,305 nM
same,TGI,MCF7 breast,1140 nM
same,GI50,A498 renal,422 nM
same,TGI,A498 renal,1800 nM
same,GI50,SF-268 CNS,481 nM
same,TGI,SF-268 CNS,1910 nM
same,GI50,SR leukemia,171 nM
same,TGI,SR leukemia,1560 nM
same,GI50,RPMI-8226 leukemia,320 nM
same,TGI,RPMI-8226 leukemia,1150 nM
same,GI50,UACC-62 melanoma,316 nM
same,TGI,UACC-62 melanoma,1130 nM
same,GI50,OVCAR-8 ovarian,532 nM
same,TGI,OVCAR-8 ovarian,2720 nM
same,GI50,EKVX NSCLC,463 nM
same,TGI,EKVX NSCLC,2160 nM
same,GI50,SF-295 CNS,381 nM
same,TGI,SF-295 CNS,1530 nM
same,GI50,RXF 393 renal,510 nM
same,TGI,RXF 393 renal,1750 nM
same,GI50,SK-MEL-28 melanoma,599 nM
same,TGI,SK-MEL-28 melanoma,1870 nM
same,GI50,UO-31 renal,1490 nM
same,TGI,UO-31 renal,3690 nM
same,GI50,NCI-H460 lung,296 nM
same,TGI,NCI-H460 lung,1050 nM
same,GI50,786-0 renal,819 nM
same,TGI,786-0 renal,2200 nM
same,GI50,SW-620 colon,300 nM
same,TGI,SW-620 colon,1360 nM
same,GI50,HOP-92 NSCLC,332 nM
same,TGI,HOP-92 NSCLC,1510 nM
same,GI50,M14 melanoma,500 nM
same,TGI,M14 melanoma,1810 nM
same,GI50,COLO 205 colon,297 nM
same,TGI,COLO 205 colon,1190 nM
same,GI50,SK-MEL-2 melanoma,463 nM
same,TGI,SK-MEL-2 melanoma,1630 nM
same,GI50,MDA-MB-435,416 nM
same,TGI,MDA-MB-435,1520 nM
same,GI50,A549 NSCLC,334 nM
same,TGI,A549 NSCLC,1700 nM
same,GI50,OVCAR-3 ovarian,454 nM
same,TGI,OVCAR-3 ovarian,1730 nM
same,GI50,SN12C renal,358 nM
same,TGI,SN12C renal,1450 nM
same,GI50,MDA-MB-231 breast,452 nM
same,TGI,MDA-MB-231 breast,1820 nM
same,GI50,HT29 colon,368 nM
same,TGI,HT29 colon,1750 nM
